Data as given in publication PMC10564737, “Structure-based design of a phosphotyrosine-masked covalent ligand targeting the E3 ligase SOCS2” (Nature Communications, 2023).
Several values for one entry are separate records, joined by “and”; a condition that tells them apart may be missing. Identical values can stand only once.

Biological target: T1, SBC2 (Homo sapiens, UniProt O14508)
T1 construct: SOCS2 (amino acids 32–198); His6 (N, cleaved yes); made in house; host or cells: E. coli BL21(DE3)
T1 sequence (O14508 32-198): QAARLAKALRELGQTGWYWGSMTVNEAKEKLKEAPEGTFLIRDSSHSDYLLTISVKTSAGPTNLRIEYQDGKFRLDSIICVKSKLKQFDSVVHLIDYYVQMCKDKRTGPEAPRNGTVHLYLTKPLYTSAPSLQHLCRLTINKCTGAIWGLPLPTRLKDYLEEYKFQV
T1 sequence (Q15370 1-104 partner limits assumed): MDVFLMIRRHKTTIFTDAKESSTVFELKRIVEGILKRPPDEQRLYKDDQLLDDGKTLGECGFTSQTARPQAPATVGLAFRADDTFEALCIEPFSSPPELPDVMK
T1 sequence (Q15369 17-112 partner limits assumed): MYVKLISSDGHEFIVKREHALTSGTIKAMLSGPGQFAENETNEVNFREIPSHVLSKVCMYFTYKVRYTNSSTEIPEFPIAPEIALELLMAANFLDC
Experiment: Covalent fluorescence polarization (FP) probe displacement assay
Assay type: binding
Details: for Anisotropy based on Raw Data (485): Cycle 7 (30 min)
Description: With the specific covalent modification of Cys111 established, we decided to fully characterize MN551 as a covalent SOCS2 inhibitor. […] (Fig. 2g, h, Supplementary Fig. 9). Due to the covalent nature of the competing inhibitor, a time-dependent reduction in the fraction of protein-bound probe is observed. […] This value illustrates reasonable specificity for a covalent inhibitor, with nonetheless scope for future optimization. In addition to characterizing the kinetic covalency parameters, we have also assessed the stability of the MN551 by monitoring its reactivity (half-life >70 min) with reduced glutathione (GSH) (Supplementary Fig. 10)[35].
To monitor the SBC2-ligand binding kinetics we designed a fluorescein-labeled small-molecule probe - compound 26. The fluorescence polarization (anisotropy) of a threefold serial dilution of 50 µM SBC2 in 10 nM of the probe in 100 mM HEPES pH 7.5, 50 mM NaCl, 0.5 mM TCEP, 2% DMSO was measured to determine the KL (Supplementary Fig. 9A) (BMG Labtech PHERAstar – firmware v1.33). Protein titration and the curves were fitted using GraphPad Prism 9, using one-site fitting models to determine the probe binding constant, KL. Samples were run in triplicate in 384 well plates, using a total volume per well of 16 μL. The bound fraction of the probe is measure using the equation:1 Fb=Af−A/Af−Ab Where,
A time-dependent reduction in probe anisotropy were measured for a 2-fold serial dilution of […] compound MN551 in 10 nM probe +300 μM SBC2. To determine the initial reversible binding affinity, the initial bound fraction of the probe at time = 0, Fbo (the y-intercept in Fb v/s Time plot, Supplementary Fig. 9B) was plotted against MN551 concentration, and the obtained IC50 is then converted to Ki (Supplementary Fig. 9C)[17]. The slope from Fb versus time graph when divided by Fbo gives rate of covalency, kobs. A plot of kobs v/s MN551 concentration using Michaelis–Menten model of GraphPad Prism 9, provides the parameters kinact (maximum potential rate of inactivation) and KI (concentration of MN551 at which kobs = kinact/2) (Supplementary Fig. 9D, E).
The observed first-order rate constant, kobs is related to KI and kinact by the equation:2 kobs=kinactI/KI+I
At [I]«[KI] the above equation is converted to3 […]
The slope from the plot of kobs against concentration of MN551 gives us the covalent efficiency parameter kinact/KI (Supp Fig. 9F)[30],[33].

[1] = MN551 48.4003 nM, Cycle 12 (55 min)
[2] = MN551 67.7604 nM, Cycle 12 (55 min)
[3] = MN551 94.8645 nM, Cycle 12 (55 min)
[4] = MN551 132.81 nM, Cycle 6 (25 min)
[5] = MN551 132.81 nM, Cycle 12 (55 min)
[6] = MN551 185.934 nM, Cycle 6 (25 min)
[7] = MN551 185.934 nM, Cycle 12 (55 min)

O=C(CCl)Nc1cccc(CNC(=O)[C@H](Cc2ccc(OP(=O)(O)O)cc2)NC(=O)Cc2ccc(F)cc2)c1 [MN551]
Fb, fraction bound (MN551 48.4003 nM, Cycle 2 (5 min)): 1.049 and 0.9991 and 1.04 | Anisotropy [1]: 281.3 and 275.7 and 274.4 | Fb [1]: 1.033 and 1.011 and 0.9942 | Anisotropy normalised (0 nM MN551 = 1, free probe = 0) (MN551 48.4003 nM, Cycle 19 (90 min), n=1): 1.03 and 1.015 (2×) | Anisotropy normalised (0 nM MN551 = 1, free probe = 0) (MN551 48.4003 nM, Cycle 20 (95 min), n=1): 1.011 and 0.999 and 0.9749 | Anisotropy based on Raw Data (485) (MN551 48.8281 nM): 280.9 and 281.7 and 280.6 | Fb, fraction bound (MN551 48.8281 nM, Cycle 2 (5 min)): 1.013 and 1.049 and 1.036 | Anisotropy (MN551 48.8281 nM, Cycle 11 (50 min)): 280 and 280.2 and 277 | Anisotropy (MN551 48.8281 nM, Cycle 12 (55 min)): 279.7 and 280.1 and 278.6 | Anisotropy data 485,520,520 (MN551 48.8281 nM, Cycle 18 (85 min), n=1): 276.3 and 276.1 and 275.6 | Anisotropy based on Raw Data (485) (MN551 67.7604 nM): 278.6 and 278.4 and 280 | Normalised anisotropy (0 nM MN551 = 1, free probe = 0) (MN551 67.7604 nM, Cycle 13 (60 min), n=1): 1.005 and 0.9558 and 1.011 | Normalised anisotropy (0 nM MN551 = 1, free probe = 0) (MN551 67.7604 nM, Cycle 14 (65 min), n=1): 1.03 and 1.001 and 1.016 | Fb, fraction bound (MN551 67.7604 nM, Cycle 2 (5 min)): 1.032 and 1.001 and 1.045 | Fb, fraction bound (MN551 67.7604 nM, Cycle 3 (10 min)): 1.036 | Anisotropy [2]: 277.4 and 276.4 and 273 | Fb [2]: 0.9963 and 1.017 and 0.9808 | Anisotropy normalised (0 nM MN551 = 1, free probe = 0) (MN551 67.7604 nM, Cycle 19 (90 min), n=1): 1.021 and 1.031 and 0.9864 | Anisotropy normalised (0 nM MN551 = 1, free probe = 0) (MN551 67.7604 nM, Cycle 20 (95 min), n=1): 0.999 and 0.9767 and 0.9903 | Anisotropy based on Raw Data (485) (MN551 94.8645 nM): 276.5 and 276.4 and 275 | Normalised anisotropy (0 nM MN551 = 1, free probe = 0) (MN551 94.8645 nM, Cycle 13 (60 min), n=1): 0.9841 and 0.9576 and 0.9759 | Normalised anisotropy (0 nM MN551 = 1, free probe = 0) (MN551 94.8645 nM, Cycle 14 (65 min), n=1): 1.002 and 0.9934 and 0.9731 | Normalised anisotropy (0 nM MN551 = 1, free probe = 0) (MN551 94.8645 nM, Cycle 15 (70 min), n=1): 1.0078 | Fb, fraction bound (MN551 94.8645 nM, Cycle 2 (5 min)): 1.026 and 1.011 and 0.9914 | Fb, fraction bound (MN551 94.8645 nM, Cycle 3 (10 min)): 1.0139 and 1.041 and 0.9705 | Anisotropy data 485,520,520 (MN551 94.8645 nM, Cycle 6 (25 min)): 273.7 and 266.4 and 265.9 | Anisotropy [3]: 274 and 273.4 and 270.5 | Fb [3]: 0.9646 and 0.9885 and 0.9568 | Anisotropy normalised (0 nM MN551 = 1, free probe = 0) (MN551 94.8645 nM, Cycle 19 (90 min), n=1): 0.9933 and 1.003 and 0.9475 | Anisotropy normalised (0 nM MN551 = 1, free probe = 0) (MN551 94.8645 nM, Cycle 20 (95 min), n=1): 0.9691 and 0.9574 and 0.9304 | Anisotropy based on Raw Data (485) (MN551 97.6562 nM): 278.3 and 282.9 and 277.5 | Fb, fraction bound (MN551 97.6562 nM, Cycle 2 (5 min)): 1.002 and 1.056 and 1.014 | Anisotropy (MN551 97.6562 nM, Cycle 11 (50 min)): 278.8 and 281.3 and 277 | Anisotropy (MN551 97.6562 nM, Cycle 12 (55 min)): 279.1 and 279.7 and 276.5 | Anisotropy data 485,520,520 (MN551 97.6562 nM, Cycle 18 (85 min), n=1): 274.3 and 275.7 and 270.8 | Anisotropy based on Raw Data (485) (MN551 132.81 nM): 277.4 and 277.3 and 272.7 | Normalised anisotropy (0 nM MN551 = 1, free probe = 0) (MN551 132.81 nM, Cycle 13 (60 min), n=1): 0.9411 and 0.9327 and 0.945 | Normalised anisotropy (0 nM MN551 = 1, free probe = 0) (MN551 132.81 nM, Cycle 14 (65 min), n=1): 0.9679 and 0.9614 and 0.9597 | Normalised anisotropy (0 nM MN551 = 1, free probe = 0) (MN551 132.81 nM, Cycle 15 (70 min), n=1): 0.9669 and 0.9677 and 0.9327 | Fb, fraction bound (MN551 132.81 nM, Cycle 2 (5 min)): 1.001 and 1.004 and 1.003 | Fb, fraction bound (MN551 132.81 nM, Cycle 3 (10 min)): 0.9889 and 1.004 and 0.9829 | Anisotropy data 485,520,520 [4]: 272.9 and 266.7 and 268.7 | Fb [4]: 1.0105 and 1.013 and 1.036 | Anisotropy [5]: 272.8 and 270.5 and 270 | Fb [5]: 0.9534 and 0.9607 and 0.952 | Anisotropy normalised (0 nM MN551 = 1, free probe = 0) (MN551 132.81 nM, Cycle 19 (90 min), n=1): 0.9528 and 0.958 and 0.9524 | Anisotropy normalised (0 nM MN551 = 1, free probe = 0) (MN551 132.81 nM, Cycle 20 (95 min), n=1): 0.9516 and 0.9273 and 0.9285 | Anisotropy based on Raw Data (485) (MN551 185.934 nM): 278.1 and 275.4 and 274.1 | Normalised anisotropy (0 nM MN551 = 1, free probe = 0) (MN551 185.934 nM, Cycle 13 (60 min), n=1): 0.927 and 0.9051 and 0.9324 | Normalised anisotropy (0 nM MN551 = 1, free probe = 0) (MN551 185.934 nM, Cycle 14 (65 min), n=1): 0.9406 and 0.935 and 0.929 | Normalised anisotropy (0 nM MN551 = 1, free probe = 0) (MN551 185.934 nM, Cycle 15 (70 min), n=1): 0.9561 and 0.9184 and 0.9202 | Fb, fraction bound (MN551 185.934 nM, Cycle 3 (10 min)): 0.9759 and 0.9879 and 0.9619 | Anisotropy data 485,520,520 [6]: 271.2 and 265.9 and 264.5 | Fb [6]: 1.005 and 0.998 and 1.018 | Anisotropy [7]: 270.4 and 269.3 and 268.1 | Fb [7]: 0.931 and 0.9492 and 0.9338 | Anisotropy normalised (0 nM MN551 = 1, free probe = 0) (MN551 185.934 nM, Cycle 19 (90 min), n=1): 0.9172 and 0.936 and 0.9397 | Anisotropy normalised (0 nM MN551 = 1, free probe = 0) (MN551 185.934 nM, Cycle 20 (95 min), n=1): 0.9014 and 0.9041 and 0.8899 | Anisotropy based on Raw Data (485) (MN551 195.312 nM): 281 and 276.5 and 273 | Fb, fraction bound (MN551 195.312 nM, Cycle 2 (5 min)): 0.9639 and 1.006 and 1.008 | Anisotropy (MN551 195.312 nM, Cycle 12 (55 min)): 272.9 and 273.5 and 273 | Anisotropy based on Raw Data (485) (MN551 260.308 nM): 270.2 and 268.2 and 264.5 | Normalised anisotropy (0 nM MN551 = 1, free probe = 0) (MN551 260.308 nM, Cycle 13 (60 min), n=1): 0.8241 and 0.8101 and 0.8658 | Normalised anisotropy (0 nM MN551 = 1, free probe = 0) (MN551 260.308 nM, Cycle 14 (65 min), n=1): 0.8651 and 0.8427 and 0.8474 | Normalised anisotropy (0 nM MN551 = 1, free probe = 0) (MN551 260.308 nM, Cycle 15 (70 min), n=1): 0.8655 and 0.8321 and 0.8452 | Fb, fraction bound (MN551 260.308 nM, Cycle 3 (10 min)): 0.9027 and 0.9023 and 0.8716 | Anisotropy data 485,520,520 (MN551 260.308 nM, Cycle 6 (25 min)): 268.3 and 257.5 and 257.9
